Measured values from patent US20230365570A1, “COMPOUNDS WITH GLUCOCORTICOID SPARING EFFECTS AND USES THEREOF” (The Regents of the University of California, priority 2020, published 2023).

Key:
THP-1 cells [1] = assay: Combination and synergy of compounds with DEX, CXCL8 release by TNF stimulated THP-1 cells; type: cell-based, human
Experimental: Drug synergy analysis was performed using lsobologram plots which were calculated according to reported procedures to compute IC50 and determine synergism. IC50 is computed from the median effect equation. Synergism analysis is carried out using the Combination index (Cl)-isobol method. Data analysis was performed using the CompuSyn software available on combisyn.com, Detailed methodology was used as described in a prior report. Briefly, the median-effect equation is computed to obtain the linear regression for the effect of inhibitors DEX and 1−1 as Fa/Fu=(D/D50)^m, where D is the dose; Fa and Fu is the fraction of the inhibition and uninhibited response by the dose D (Fa+Fu=1); D50 is the dose producing the median effect (i.e, IC50). The constant m determines the shape of the dose-effect curve. The median-effect equation in logarithmic form is log (Fa/Fu) =m log(D)−m log (D50) which essentially represents a linear relationship between log(Fa/Fu) and log(D). […] This is followed by Cl-isobol method to quantitatively assess the synergism between these inhibitor drugs. A combination index (Cl) is estimated from dose-effect data of single and combined drug treatments. A value of C; less than one indicates synergism; Cl=1 indicates additive effect; and Cl>1 indicates antagonism. Drug interaction (synergism or antagonism) is more pronounced the further a CI value is from 1. […] The doses Dx1 and Dx2 were estimated from the median effect equation above for single drug treatments. From the median effect equation, the estimated dose (i.e., D) necessary to produce the inhibition (i.e., Fa, Fu) obtained by the combination was calculated. The results are presented as a normalized isobolograrn. A point in the isobologram represents the effect of a drug(s) treatment.
To assess whether the remaining candidate compounds would provide additional benefit to a low dose of glucocorticoid, THP-1 cells were stimulated with TNF and treated them with serially diluted compounds and 100 nM DEX (FIGS. 4A-C). […] Next whether there was an additive or synergistic effect with these three compounds and DEX was formally addressed. […] The four CXCL8 levels below the maximum plateau were used to calculate an isobologram (FIG. 5D).

mBMDCs = assay: IFNβ induced by DMXAA in mBMDCs; type: cell-based, mouse; conditions: for IFNβ induced by DMXAA: mBMDCs (FIG. 9F)
Experimental: (§1) FIGS. 9A-9F show the partial STING dependent activity of nitrofuranylamide compounds 4, 5 and 6 and inhibition of TLR pathways.
(§2) Since the synthesized compounds were identified via assays in human cells, there was interest in verifying the potency of these compounds in murine cells. Compounds were incubated with murine bone marrow-derived dendritic cells (BM DCs) obtained from wild-type (WT) mice and STING null (Tmem173^−/−) mice as STING had been reported as the target of other nitrofuranylamides. […] To compare these compounds, the IC50 values of these compounds were assessed in dose titration studies.

[2] = system: murine bone marrow-derived dendritic cells (BMDCs); assay: TNF-α and IP-10 induction by TLR and STING ligands in murine BMDCs; type: cell-based, mouse; conditions: BMDCs from WT and Tmem173-/- mice (FIGS. 9A-D)
Experimental: as §1, §2

THP-1 cells [3] = assay: IL-1ß stimulated TNF release by THP-1 cells; type: cell-based, human
Experimental: (§3) THP-1 cells (10^5 cells/200 μL/well) and RA FLS (104/200 μL/well) were plated in 96 well plates and pre-treated with compound or vehicle for 1 h and then stimulated with either LPS (10 ng/ml), 1L-1ß (2 ng/ml) or TNF (2 ng/ml for THP-1 and 1 ng/ml for RA FLS). After 18 h of incubation, supernatants were collected and the levels of cytokines and chemokines in the culture supernatants were measured by ELISA according to the manufacturer's protocols (R&D systems, Minneapolis, MN).
(§4) The lead compounds belonging to chemotypes 1, 3, and 5 were tested for potency in suppressing chemokine and cytokine production by THP-1 cells in the presence of different inflammatory stimuli. The production of CXCL8 induced by either LPS (10 ng/ml), IL-1ß (2 ng/ml), or TNF (2 ng/ml) and TNF induced by IL-1ß (2 ng/ml) was assessed using serially diluted compounds. The compounds except 1-2 reduced the level of CXCL8 production stimulated by LPS in a dose dependent manner (FIG. 3A). However, the compounds from chemotype 5 enhanced CXCL8 release by THP-1 cells when stimulated with IL-111, or TNF (FIGS. 3B, C). […] The 1Cs0 for 1-1, 1-2 and 3-1 for IL-1ß stimulated CXCL8 release included 400, 1770, and 2020 nM, respectively, (FIG. 3C).

THP-1 cells [4] = assay: Cell viability by MTT assay in THP-1 cells; type: cell-based, human; conditions: for Cellular viability (% Viability compared to Veh): 10 uM (FIG. 8B)
Experimental: Two types of tetrazolium were used for viability assays. […] After 18 h of incubation, 0.5 mg/ml 3[4,5-dimethylthiazol-2-yl]-2,5-dipheyl tetrazolium bromide (MTT; Thermo Fisher Scientific) in assay media was added to each well at a final concentration of (0.5 mg/ml) and further incubated for 4-6 h. The absorbances at 570 and 650 nm were measured by a Tecan Infinite M200 plate reader, For RA FLS, the cells were dispersed into 96-well flat bottom plates (104/200 μL/well) and incubated overnight. The next day, RA FLS were treated with 5 μM of each compound for 18 h of incubation. Ten μl of WST-8 [2-(2-methoxy-4-nitrophenyl)-3-(4-nitrophenyl)-5-(2,4-disulfophewnyl)-2H-tetrazolium, monosodium salt] solution was added to each well and the cells were further incubated for 2-4 h. The absorbance was measured at 450 nm with Bio-Rad iMark plate reader (Bio-Rad Laboratories Inc., Hercules, CA, Unites States).

mice = assay: K/BxN serum induced arthritis and allodynia in mice; type: in vivo, mouse
Experimental: FIGS. 10A-10D show the in vivo activity of compound 5 in WT and STING knock-out Tmem173^−/− mice. Mice were induced with K/B×N serum on days 0 and 2 to have arthritis and related pain. Compound 5 was administered (750 nmol) IP BID on days 0-5. […] (B) These effects of compound 5 are not seen in similarly treated Tmem173−/− mice. Mechanical allodynia is measured with monofilaments in a von Frey assay and increase in pain perception by the animal is recorded as a drop in the threshold. *P<0.0001 by two-way ANOVA.

NF-κB = NF-κB activation assay in LPS stimulated CellSensor NF-κB-bla THP-1 reporter cells; type: cell-based, human; conditions: 5 h and 16 h time points
Experimental: In the presence of lactamase, CCF4 was enzymatically cleaved and excitation at 409 nm produced a blue fluorescence signal (at 450 nm), The CellSensor® NF-κB-bla THP-1 cells were dispersed in 96-well plates (5×10^4 cells/200 μL/well) and incubated for 4 h, Then the cells were treated with 5 μM of each compound and 10 ng/ml of LPS for 5 or 12 h in 5% CO2 at 37° C. After incubation, the ß-lactamase substrate mixture (prepared according to the manufacturer's protocol) was added to each well. Plates were incubated at room temperature in the dark for 2 h. Fluorescence was measured on a Tecan Infinite M200 plate reader (Tecan, Mannedorf, Switzerland) at an excitation wavelength of 405 nm and emission wavelengths of 465 and 535 nm. Emission ratios are calculated by dividing values from emission wavelength of 465 nm by those from emission wavelength of 535 nm, The response ratio was calculated as follows [(emission ratio of a test well)/average emission ratio of wells with vehicle (0.5% DMSO)] and values were normalized to the LPS control treated wells [response ratio of the compound/response ratio of LPS].
Using LPS as a primary inflammatory stimulus the effect of these compounds on NF-κB activity was evaluated at two time points to profile the kinetics of their suppression.

THP-1 cells [5] = assay: CXCL8 production by LPS stimulated THP-1 cells (ELISA); type: cell-based, human; conditions: LPS 10 ng/ml, purchased compound, mean LPS CXCL8 201.1 pg/ml = 100%
Experimental: as §3
The 122 hit compounds underwent additional screening and were evaluated for their effects on cell viability and the ability to suppress production of an NF-κB-associated chemokine, CXCL8 (IL-8) by LPS stimulated THP-1 cells (FIG. 2D). The cells were also examined for viability after 24 h of stimulation by MTT assay (FIG. 2E).
Three of the eleven chemotypes were excluded based on the potential for them to be Michael acceptors, In many cases α,β-unsaturated carbonyls such as those found in these chemotypes can form adducts with thiols, especially under physiological conditions (pH=6-8), reducing the in vivo efficacy. Also, Michael acceptors are often […] IKKß inhibitors and thereby inhibit NF-KB response. […]

THP-1 cells [6] = assay: IL-1ß stimulated CXCL8 release by THP-1 cells; type: cell-based, human; conditions: IL-1ß 2 ng/ml, overnight (FIG. 3C)
Experimental: as §3, §4

THP-1 cells [7] = assay: TNF stimulated CXCL8 release by THP-1 cells; type: cell-based, human; conditions: TNF 2 ng/ml, overnight (FIG. 3B)
Experimental: as §3, §4

[8] = WT mice, 750 nmoles IP BID for 6 days

| Compound | IFNβ induced by DMXAA (mBMDCs) | mIP-10 production induced by TLR4 (LPS), TLR7 (1V270) and STING (DMXAA) ligands [2] | mTNF-a production induced by TLR4 (LPS), TLR7 (1V270) and STING (DMXAA) ligands [2] | TNF release when stimulated with IL-1ß (THP-1 cells [3]; THP-1 cells) | Cellular viability (% Viability compared to Veh) (THP-1 cells [4]) | further results |
| --- | --- | --- | --- | --- | --- | --- |
| C[C@@H]1C[C@H]2[C@@H]3CCC4=CC(=O)C=C[C@]4(C)[C@@]3(F)[C@@H](O)C[C@]2(C)[C@@]1(O)C(=O)CO [DEX, dexamethasone, reference compound] | – | – | – | – | – | IC50 (THP-1 cells [1]; Homo sapiens, TNF stimulated THP-1 cells, single agents (FIG. 5A), read-out: IC50 for TNF stimulated CXCL8 release (titration with DEX)): 300 nM |
| O=C(Nc1cc([N+](=O)[O-])ccc1Cl)c1ccc([N+](=O)[O-])o1 [Compound 6] | Dose-dependent inhibition | inhibited | inhibited | Dose-dependent inhibition | approximately 100% | – |
| O=C(Nc1cccc(C(F)(F)F)c1)c1ccc([N+](=O)[O-])o1 [Compound 5] | Dose-dependent inhibition | inhibited | inhibited | Dose-dependent inhibition | approximately 100% | Cytokine inhibition IC50, mouse cell studies (mBMDCs; mBMDCs stimulated with DMXAA, IFNβ (FIG. 9F)): nanomolar (nM) range; Pain or swelling in Tmem173-/- mice (mice; Tmem173-/- mice, 750 nmol IP BID): no statistically significant effect; Acute inflammation in the ankle (ankle thickness) (mice; [8]): modest effect; Mechanical allodynia (von Frey filaments) (mice; [8]): significantly reduced; Cytokine inhibition IC50, human cell studies (THP-1 cells [3]; THP-1 cells stimulated with IL-1β, TNF-a (FIG. 9E)): nanomolar (nM) range |
| polymyxin B | – | – | – | – | – | Inhibition of NF-κB activity (NF-κB): suppressed NF-κB activity at both timepoints |
| CCOc1ccc(NC(=O)c2ccc([N+](=O)[O-])o2)cc1 [Compound 4] | Dose-dependent inhibition | inhibited | inhibited | Dose-dependent inhibition | approximately 100% | – |
| NC(=O)Nc1sc(-c2ccc(F)cc2)cc1C(N)=O [UTC, 5-(4-fluorophenyl)-2-ureidothiophene-3 carboxylic acid amide] | – | – | – | – | – | Inhibition of NF-κB activity (NF-κB): inhibited NF-κB activity at both time points |
| CCCCNc1ncnc2c1cnn2-c1ccc(C)cc1C [Compound 1-2] | – | – | – | – | – | CXCL8 production. Relative to LPS (purchased) (THP-1 cells [5]): 70.1%; IC50 (THP-1 cells [6]): 1770 nM; IC50 (THP-1 cells [3]; THP-1 cells, IL-1ß 2 ng/ml, overnight (FIG. 3D)): 2770 nM; % Cellular Viability (Purchased) (THP-1 cells [4]; purchased compound): 100.1%; IC50 (THP-1 cells [7]): 4130 nM; Effect of addition of DEX on CXCL8 production (THP-1 cells [1]; TNF 2 ng/ml stimulated THP-1 cells, serially diluted compound plus 100 nM DEX (FIGS. 4A-C)): only effective at the lower doses; Synergy with DEX, isobologram of potency ratios for CXCL8 (THP-1 cells [1]; TNF stimulated THP-1 cells, compound and DEX titrated at same molarity (FIG. 5D)): modestly synergistic |
